Results taken from patent publication US7972611B2, “Fungus-induced inflammation and eosinophil degranulation” (Mayo Foundation for Medical Education and Research, priority 2005, dated 2011).
Like-named read-outs stand apart in the source and are kept apart here.

Legend:
patients with CRS [1] = assay: Randomized, placebo-controlled, double-blind trial of intranasal amphotericin B in CRS patients; format: in vivo, human; conditions: 6 months
Description: Second, to address the efficacy of intranasal antifungal agents more objectively, a randomized, placebo-controlled, double-blind, single center trial was performed to treat 30 randomly selected CRS patients. Patients instilled 20 mL amphotericin B (250 μg/mL) or placebo to each nostril twice daily for 6 months. Twenty-four patients completed the 6 months of treatment. […] The changes in the endoscopic scores improved in the amphotericin B group compared to placebo (p=0.038). […] Some patients responded well to the treatment, but others not as well. Thus, fungi may be important in the development of CRS in certain patients.

patients with CRS [2] = assay: Open-label pilot trial of intranasal amphotericin B in CRS patients
Description: To examine the clinical significance of fungal colonization in CRS, two clinical trials were performed to examine the efficacy of anti-fungal agents. It was hypothesized that anti-fungal agents will reduce the fungal burden in the upper airways, resulting in less antigenic stimulation of immune cells, less airway inflammation, and improved clinical outcomes. […] This prospective, open-label trial used amphotericin B as a medical treatment in 51 randomly selected CRS patients. The antifungal was applied intranasally using 20 mL of a 100 μg/mL solution twice daily for a mean of 11 months (minimum of 3 months).

BEAS-2B cells = assay: Cytokine production by BEAS-2B airway epithelial cells; format: cell-based, human
Description: FIG. 10. Effects of fungi on IL-6 production by BEAS-2B cells. BEAS-2B cells were incubated with culture extracts of various fungi for 24 hours. IL-6 concentrations in the supernatants were measured by ELISA. *, p<0.05 compared to medium alone, n=3.
FIG. 11. Effects of an aspartate protease inhibitor, ritonavir, on IL-8 production by BEAS-2B cells. Alternaria extract or TNF-α was pretreated with ritonavir and added to BEAS-2B cells. IL-8 concentrations in the supernatants were measured after 24 hours. Data are normalized to the values without ritonavir as 100%. *, p<0.05 compared to no inhibitor, n=4.
Eosinophils may be the only cell that can recognize Alternaria. […] BEAS-2B stimulated with Alternaria also produced other pro-inflammatory factors such as IL-8 and GM-CSF. This Alternaria-induced IL-6 production was inhibited by ATBI, nelfinavir, ritonavir or pepstatin A-agarose treatment of Alternaria extract by about 60% to 90%; ritonavir results are shown in FIG. 11. In contrast, TNF-α-induced IL-6 production was not affected by these treatments. […] Thus, through its aspartate protease activity, Alternaria may activate airway epithelial cells; this activation is partially mediated by PAR-2.

eosinophils = format: cell-based, human; conditions: for eosinophil degranulation (EDN release) induced by Alternaria extract: 3 hours at 37° C.
Description: FIG. 9. […] Alternaria extract, trypsin, or PMA was pretreated with pepstatin A agarose, control agarose, or APMSF, and added to the PAR-2 peptide substrate (Panel A) or eosinophils (Panel B).
(§1) To monitor eosinophil function in response to extracts from Alternaria, degranulation of human eosinophils was measured by quantitating released eosinophil-derived neurotoxin (EDN) and/or MBP. In brief, freshly isolated eosinophils were suspended in HBSS with 25 mM HEPES and 0.01% gelatin at 5×10^5 cells/mL. Eosinophils and stimuli were incubated in 96-well tissue culture plates for 3 hours at 37° C. and 5% CO^2. Cell-free supernatants were stored at −20° C. A specific RIA quantitated eosinophil degranulation by measuring the concentration of EDN in the supernatants.

PAR-2 = target: T1, PAR-2 (Homo sapiens, UniProt P55085); assay: Eosinophil calcium response to Alternaria extract after preincubation with PAR-2 peptides; format: cell-based; conditions: preincubation with peptide, 100 μM
T1 construct: endogenous in cells; host or cells: isolated human blood eosinophils
T1 sequence (P55085 26-397): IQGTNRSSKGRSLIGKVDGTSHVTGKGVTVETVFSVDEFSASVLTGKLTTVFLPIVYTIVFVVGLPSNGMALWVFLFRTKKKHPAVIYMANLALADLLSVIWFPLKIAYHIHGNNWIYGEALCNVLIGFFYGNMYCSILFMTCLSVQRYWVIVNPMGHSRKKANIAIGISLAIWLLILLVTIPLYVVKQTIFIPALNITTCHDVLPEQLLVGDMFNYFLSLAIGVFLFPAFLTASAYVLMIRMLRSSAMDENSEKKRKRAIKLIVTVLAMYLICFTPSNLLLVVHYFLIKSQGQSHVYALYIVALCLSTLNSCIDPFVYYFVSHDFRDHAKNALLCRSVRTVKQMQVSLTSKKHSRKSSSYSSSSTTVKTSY
Description: FIG. 8. Desensitization of eosinophil calcium response (Panel A) and EDN release (Panel B) by PAR-2 peptides. Cells were preincubated with PAR-2 agonist (SLIGKV; SEQ ID NO:38), PAR-2 antagonist (LSIGKV; SEQ ID NO:35) or control peptide (GLIVKS; SEQ ID NO:36) (all at 100 μM) before stimulation with Alternaria extract (Panel A) or with Alternaria extract, PAF or PMA (Panel B).
The majority of previous studies in anti-fungal immune responses used the following models: animal infection in in vivo systems (e.g., Candida albicans, Aspergillus fumigatus), or entire fungal hyphae or conidia (e.g., C. albicans, A. fumigatus), a yeast model (e.g., zymosan), and isolated fungal carbohydrate macromolecules (e.g., β-glucan, mannan) in in vitro systems. These studies pointed to roles for TLRs, in particular TLR2 and TLR4, and to other pattern recognition receptors that immune cells, such as macrophages and neutrophils, use to recognize fungi. Because eosinophils express little TLR2 or TLR4 and the active component(s) in Alternaria extract was a heat-labile molecule(s) with an approximate 30-50 kDa molecular mass (FIG. 6), it was speculated that an Alternaria-derived protease(s) (not carbohydrates), interacting with eosinophil PAR-2, may be involved in the eosinophils' responses to Alternaria. Sine no specific small molecule inhibitor for PAR-2 is available, a desensitization approach was used. […] In contrast, degranulation induced by PAF or PMA was not affected by the LSIGKV (SEQ ID NP:35) peptide. Thus, PAR-2 is likely involved in the eosinophils' calcium and degranulation responses to Alternaria extract.

PBMCs = assay: PBMC CD4+ T cell proliferation by CFSE labeling; format: cell-based, human; conditions: side-by-side experiment, day 7
human eosinophils = assay: Eosinophil degranulation (EDN release) and activation by fungal extracts and proteins; format: cell-based
Description: FIG. 5. Effects of fungi on eosinophil degranulation. Eosinophils were incubated with culture extracts of various fungi for 3 hours.
FIG. 21. Effects of Trichoderma xylanase on eosinophil degranulation (Panel A). Effects of Trichoderma xylanase on IL-5 production in mouse airways (Panel B). Panel A: Eosinophils were incubated with various concentrations of Trichoderma xylanase for 3 hours. EDN concentrations in the supernatants were measured by RIA as an indicator of degranulation. Panel B: Naive BALB/c mice were exposed intranasally to various doses of Trichoderma xylanase. After 12 hours, BAL fluids were collected and the concentrations of IL-5 were measured by ELISA. Mean±range, n=2.
FIG. 25. Partial characterization of Alternaria extract. A, Before incubation with eosinophils, aliquots of 100 μg/mL Alternaria and 10 ng/mL IL-5 were heated at 37, 56, or 100° C. for 30 min or were treated at 4° C. for 30 min. Eosinophils were incubated in duplicate with these treated stimuli for 3 hours at 37° C. […] The molecular weight calibration of the column is shown above the elution profile.
The following was performed to determine whether human eosinophils have an innate capacity to respond to environmental fungal organisms. Human eosinophils were incubated with extracts from common environmental airborne fungi.
as §1

[3] = tested on: PAR-2 peptide substrate (Abz-SKGRSLIGK(Dnp)D); assay: Fluorescent quenched PAR-2 peptide substrate cleavage assay; format: biochemical
Excerpt: FIG. 9. Effects of protease inhibitors on PAR-2 cleavage activity (Panel A) and EDN release activity (Panel B) of Alternaria extract. Alternaria extract, trypsin, or PMA was pretreated with pepstatin A agarose, control agarose, or APMSF, and added to the PAR-2 peptide substrate (Panel A) or eosinophils (Panel B). In Panel B, *, p<0.05 compared to no inhibitors, n=4.
A fluorescent quenched peptide substrate (Abz-SKGRSLIGK(Dnp)D) (SEQ ID NO:37), which spans the trypsin-cleavage site (between R and S) of PAR-2 was synthesized, and used it in an in vitro assay for PAR-2 cleavage and activation. […] Alternaria's activity was abolished when aspartate protease(s) was removed from the extract by pepstatin A agarose (FIG. 9); pepstatin A is a highly specific inhibitor for aspartate protease. […] Thus, an aspartate protease(s) in Alternaria extract, but not a serine protease(s), may be involved in the activation of eosinophils through PAR-2. this observation was confirmed by using other aspartate protease inhibitors, including alkalo-thermophilic bacillus inhibitor (ATBI), nelfinavir, and ritonavir.

With `C[C@@H]1[C@H](O)[C@@H](C)/C=C/C=C/C=C/C=C/C=C/C=C/C=C/[C@H](O[C@@H]2O[C@H](C)[C@@H](O)[C@H](N)[C@@H]2O)C[C@@H]2O[C@](O)(C[C@@H](O)C[C@@H](O)[C@H](O)CC[C@@H](O)C[C@@H](O)CC(=O)O[C@H]1C)C[C@H](O)[C@H]2C(=O)O` [amphotericin B] the “change in intranasal mucus levels of EDN” value (patients with CRS [1]; increase in placebo group, p=0.046) was “a reduction”, the “changes in endoscopic scores compared to placebo” value (patients with CRS [1]; p=0.038) was “improved” and the “mucosal thickening on CT scans compared to placebo” value (patients with CRS [1]; 20 mL 250 μg/mL each nostril twice daily, p=0.030) was “reduced”. For the same molecule, the “no effect seen, patients” value (patients with CRS [2]; 13/51 patients) was 25%, the “endoscopically disease free, patients” value (patients with CRS [2]; 18/51 patients) was 35% and the “endoscopically improved by at least one stage, patients” value (patients with CRS [2]; additional 20/51 patients) was 39%. The “improvement of sinusitis symptoms, patients” value (patients with CRS [2]; intranasal 20 mL of 100 μg/mL twice daily, mean 11 months, 38/51 patients) was 75%, the “inflammatory mucosal thickening on CT scans pre- and post-treatment” value (patients with CRS [2]; n=12) was “significant reduction” and the “safety of direct muco-administration” value (patients with CRS [2]; open-label pilot trial) was “safe”.

For `Cc1c(O)cccc1C(=O)N[C@@H](CSc1ccccc1)[C@H](O)CN1C[C@H]2CCCC[C@H]2C[C@H]1C(=O)NC(C)(C)C` [nelfinavir], the “TNF-α-induced IL-6 production by BEAS-2B cells” value (shortened to “TNF-α-induced IL-6 production”) (BEAS-2B cells) was “not affected” and the “eosinophil degranulation (EDN release) induced by Alternaria extract” value (eosinophils) was “confirmed”.

In the case of `CC(C)c1nc(CN(C)C(=O)N[C@H](C(=O)N[C@@H](Cc2ccccc2)C[C@H](O)[C@H](Cc2ccccc2)NC(=O)OCc2cncs2)C(C)C)cs1` [ritonavir], the “TNF-α-induced IL-6 production” value (BEAS-2B cells) is reported as “not affected” and the “eosinophil degranulation (EDN release) induced by Alternaria extract” value (eosinophils) is reported as “confirmed”.

In the case of “GLIVKS (Synthetically generated oligonucleotide) [control scramble peptide]”, the “eosinophils' calcium response to Alternaria extract” value (“eosinophils' calcium response” for short) (PAR-2) is reported as “showed no effects”.

In the case of “LSIGKV (Synthetically generated oligonucleotide) [PAR-2 antagonist]”, the “inhibition of Alternaria-induced IL-6 production by BEAS-2B cells” value (BEAS-2B cells; treatment of Alternaria extract or PAR-2 antagonist) is reported as roughly 40%, the “eosinophils' calcium response” value (PAR-2) is reported as “also inhibited” and the “eosinophil degranulation (EDN release) induced by Alternaria extract” value (eosinophils) is reported as “significantly and specifically inhibited”. The “eosinophil degranulation (EDN release) induced by Alternaria extract” value (eosinophils; listed as PAR2-inhibitory peptide) was “inhibited”, the “eosinophil degranulation induced by PAF” value (eosinophils; peptide 100 μM) was “not affected” and the “eosinophil degranulation induced by PMA” value (eosinophils; peptide 100 μM) was “not affected”.

For “SLIGKV (Synthetically generated oligonucleotide) [PAR-2 agonistic peptide]”, the “eosinophils' calcium response” value (PAR-2) was “significantly inhibited”.

“alkalo-thermophilic bacillus inhibitor [ATBI]” was tested, and the “TNF-α-induced IL-6 production” value (BEAS-2B cells) was “not affected” and the “eosinophil degranulation (EDN release) induced by Alternaria extract” value (eosinophils) was “confirmed”.

In the case of tetanus toxoid: tetanus toxoid, the “CFSElow CD4+ cells” value (PBMCs; CRS patient) is reported as 43.2% and the “CFSElow CD4+ cells” value (PBMCs; normal individual) is reported as 47.9%.

B1: SEQ ID NO:2: polypeptide of SEQ ID NO:2, Alternaria alternata endoxylanase, recombinantly produced in E. coli (protein, listed as Alternaria brassicicola)
chain: MHFRGSSIYFGIVALSSTSAVLGAVAPYGQCGGNGFQGETECAQGWSCVKSNDWYSQCINGGGNAPAPPAATGVAPAPVIPSAAPVPSMNASEPVAAPVAVAQPAATGGANGSAPDVAGTGANGAKCSLDAAFKSHGKKYIGVATDQGALSKGKNKEIIVANFGQVTPENSMKWDATEGTEGKFTLDGANALVSFATENKKLVRGHTTVWHSQLPTWVSSITDKTKLEEVMVAHIKKLMSTYAGKVYAWDVVNEIFNEDGSFRSSVFYNVLGENFVATAFATAKAADPEAKLYINDYNLDSPSYAKTKAMASNVKKWVAAGVPIDGIGSQSHLSGSWPISDYPAALKLLCESASECAMTELDIKGGAAADYKTAVTACLDVENCVGVTVWGVSDTDSWIGAAATPLLFDGSFQAKESYNGLCSALA
With B1 the “eosinophil degranulation (EDN release)” value (human eosinophils; eosinophils incubated with stimulus) was “stimulated eosinophil degranulation”.

B2: trypsin: serine protease, positive control (protein, UniProt P00760 24-246, looked up)
Serine protease 1: IVGGYTCGANTVPYQVSLNSGYHFCGGSLINSQWVVSAAHCYKSGIQVRLGEDNINVVEGNEQFISASKSIVHPSYNSNTLNNDIMLIKLKSAASLNSRVASISLPTSCASAGTQCLISGWGNTKSSGTSYPDVLKCLKAPILSDSSCKSAYPGQITSNMFCAGYLEGGKDSCQGDSGGPVVCSGKLQGIVSWGSGCAQKNKPGVYTKVCNYVSWIKQTIASN
B2 was tested, and the “cleavage of PAR-2 peptide substrate” value [3] was “clearly cleaved” and the “activation of human eosinophils by proteases” value (human eosinophils; through PAR-2) was “activated”.
